The subject of series [1] is normal skin surrounding the vitiligo lesion. Kind of series: Topical psoralen / PUVA therapy of vitiligo lesions: skin reaction around the lesion. In kind it is in vivo. An excerpt: FIG. 1 A depicts hyper pigmentation surrounding vitiligo lesion following topical Psoralen therapy
A further series relates to vitiligo. The note with it: monotherapy without ultra violet exposure; personal observation of N Ostovari; cited from earlier work.

As for `COc1c2occc2cc2ccc(=O)oc12` [8 methoxypsoralen, 9-methoxy-7H-furo[3,2-g][1]-benzopyran-7-one], in series [1] (following topical use), the “Pigmentory change surrounding the vitiligo lesion (FIG. 1A)” value was “hyperpigmentation”. In addition, in series [1] (two applications of 1.0% solution at alternate days, topical PUVA therapy), the “Skin reaction surrounding the vitiligo lesion (FIG. 1B)” value is “Erythematous photo toxic reaction”.

Consider `C=CC[C@@H]1/C=C(\C)C[C@H](C)C[C@H](OC)[C@H]2O[C@@](O)(C(=O)C(=O)N3CCCC[C@H]3C(=O)O[C@H](/C(C)=C/[C@@H]3CC[C@@H](O)[C@H](OC)C3)[C@H](C)[C@@H](O)CC1=O)[C@H](C)C[C@@H]2OC` [tacrolimus], for which the Repigmenting potential entry in the series with vitiligo was “little or no repigmenting potential”.

These data come from patent US20160235708A1, “TOPICAL PIGMENTORY COMPOSITION” (priority 2013, published 2016).
